Where “and” joins values, the source holds several entries; their conditions need not be identical. Identical values can stand only once. Like-named read-outs stand apart in the source and are kept apart here.

For the assay, the system named is C. difficile. The format is cell-based. As to conditions: 37° C. 24 h; for concentration added at which a mass of bacteria and the surrounding medium exhibited yellow color / concentration added at which a mass of bacteria exhibited yellow color / concentration added at which a mass of bacteria was found: added to medium of Table 1.

For `O[C@H](CS)[C@H](O)CS` (racemic) [dithiothreitol], the “concentration added at which a mass of bacteria and the surrounding medium exhibited yellow color” value is 0.6 g/L and 0.9 g/L; the “concentration added at which a mass of bacteria exhibited yellow color” value was in the range of 0.16 to 1.2 g/L; the “concentration added at which a mass of bacteria was found” value is 0.075 to 1.5 g/L. Besides, where the note is “dithiothreitol added 0.075 g/L”, the Yellow coloration degree was 1. This compound also gave a Yellow coloration degree (dithiothreitol added 0.16 g/L) of 2. The Yellow coloration degree (dithiothreitol added 0.32 g/L) was found to be 2. This compound also gave a Yellow coloration degree (dithiothreitol added 0.60 g/L) of 3. The Yellow coloration degree (dithiothreitol added 0.90 g/L) turned out to be 3. This compound also gave a Yellow coloration degree (dithiothreitol added 1.2 g/L) of 2. For the setting “dithiothreitol added 1.5 g/L”, this compound returned a Yellow coloration degree of 1. This compound returned a Yellow coloration degree (dithiothreitol added 1.8 g/L) of 0.

For the compound `O=C1O[C@H]([C@@H](O)CO)C(O)=C1O` [ascorbic acid], the “concentration added at which a mass of bacteria and the surrounding medium exhibited yellow color” value lay within 0.32 to 1.8 g/L; the “concentration added at which a mass of bacteria exhibited yellow color” value is 0.16 to 2.7 g/L; the “concentration added at which a mass of bacteria was found” value lay in the range of 0.075 to 3.6 g/L. Where the note is “ascorbic acid added 0.075 g/L”, this compound gave a Yellow coloration degree of 1. The compound further displayed a Yellow coloration degree (ascorbic acid added 0.16 g/L) of 2. Also, under “ascorbic acid added 0.32 g/L”, the Yellow coloration degree was 3. Also, the Yellow coloration degree (ascorbic acid added 0.64 g/L) is listed as 3. Besides, for the setting “ascorbic acid added 1.8 g/L”, the Yellow coloration degree is on record as 3. This compound registered a Yellow coloration degree (ascorbic acid added 2.7 g/L) of 2. Where the note is “ascorbic acid added 3.6 g/L”, the Yellow coloration degree is listed as 1. In addition, where the note is “ascorbic acid added 4.5 g/L”, the Yellow coloration degree is listed as 0.

The values are drawn from patent US10900014B2, “Long-term storage medium for culturing obligate anaerobic bacteria or microaerobic bacteria under aerobic environment, and method of detecting obligate anaerobic bacteria or microaerobic bacteria using said medium” (Kanto Kagaku Kabushiki Kaisha, priority 2015, dated 2021).
